This note sets out measurements from patent publication US20080039455A1, “PYRAZOLOPYRIMIDINES AND SALTS THEREOF, PHARMACEUTICAL COMPOSITIONS COMPRISING SAME, METHODS OF PREPARING SAME AND USES OF SAME” (priority 2006, published 2008).

Broadly, the IC50 is the concentration that inhibits the measured activity by half.

The target of the test is T1, human recombinant ALK1 (GST fused to ALK1 intracellular domain [His142-Gln503]) (Homo sapiens, UniProt P37023).
T1 construct: GST fused to ALK1 intracellular domain [His142-Gln503]; made in house
T1 sequence (P37023 142-503): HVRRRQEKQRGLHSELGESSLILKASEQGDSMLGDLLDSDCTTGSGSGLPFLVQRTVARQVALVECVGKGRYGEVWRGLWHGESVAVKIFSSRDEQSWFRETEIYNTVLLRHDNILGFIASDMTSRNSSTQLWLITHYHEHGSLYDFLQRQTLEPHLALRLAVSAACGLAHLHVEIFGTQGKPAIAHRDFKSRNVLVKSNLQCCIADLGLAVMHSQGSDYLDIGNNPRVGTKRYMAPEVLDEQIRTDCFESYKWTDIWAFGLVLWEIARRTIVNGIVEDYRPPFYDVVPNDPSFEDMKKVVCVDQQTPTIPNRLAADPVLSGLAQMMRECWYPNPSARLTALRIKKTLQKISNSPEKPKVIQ
Nature of the test: ALK1-Kinase Flashplate-Assay. The class given is biochemical. The settings on record: 0.5 μM ATP, biotinylated α-casein substrate; read-out: Assay 1 (ALK1-Kinase Flashplate-Assay IC50 class). From the text: Biological Assay 1: ALK1-Kinase Flashplate-Assay
ALK1 phosphorylates serine/threonine residues of the biotinylated substrate bovine α-casein in the presence of [γ-^33P]ATP. Detection of the radiolabeled phosphorylated product is achieved by binding to streptavidine-coated Flashplates. The biotin moieties of biotinylated casein bind with high affinity to the streptavidine. The radiolabeled biotinylated casein produced by the ALK1 kinase reaction is able to generate a […] signal when strepatavidine-mediated binding occurs to the scintillant-containing surface of the Flashplates due to the close proximity of the radiolabel and the scintillant. […] The signals obtained are therefore indicative of the ALK1 kinase activity. Measurement is performed in a Perkin-Elmer TopCount or Perkin-Elmer ViewLux instrument.
Enzyme: Purified human recombinant ALK1 (GST fused to ALK1 intracellular domain [His142-Gln503]) produced in-house, aliquots stored at −80° C.;
Diluted enzyme working solution: 2.5 ng/μl ALK1 (in assay buffer) freshly prepared and chilled on ice until use.
Substrate: biotinylated bovine α-casein. Unbiotinylated casein obtained from Sigma was biotinylated by standard procedures using N-hydroxysuccinimide (NHS) ester of biotin.
Substrate working solution: 0.83 μM ATP, 1.67 μM biotinylated a-casein, 7.4 nCi [γ-^33P]ATP/μl in assay buffer
Assay plates: 384-well plates, small volume, white, Greiner (# 784075)
Flashplates: Streptavidin-coated Flashplates, Perkin Elmer (384-well # SPM410A)
Assay buffer: 50 mM Tris/HCl pH 8.0, 1 mM MnCl2, 1 mM DTT, 0.01% NP40, 0.5× Complete EDTA-free
Stop solution: 33.3 μM ATP, 33.3 mM EDTA, 0.07% Triton X-100 in PBS
Saturating buffer for Flashplates: 100 μM ATP, 0.2% Triton X-100 in PBS
Sealing tape: Greiner (# 676080)
Protocol for small volume 5 μl assay (all steps are performed at 20° C., pipetted with CyBi-Well and Multidrop Micro): • 1. 50 nl or 250 nl compound in 100% DMSO • 2. addition of 3 μl substrate working solution with CyBi-Well pipettor • 3. addition of 2 μl enzyme working solution with Multidrop Micro incubation for 60 min at room temperature • 4. addition of 15 μl Stop solution with CyBi-Well pipettor • 5. transfer of 18 μl assay mixture to Flashplates** with CyBi-Well pipettor incubation for at least 3 h at room temperature or over night at 4° C. to allow binding to the streptavidine-coated Flashplates • 6. washing the Flashplates 3 times with 50 μl PBS without Ca++ and Mg++ • 7. sealing with sealing tape • 8. Measurement in Topcount (60 sec/well) **Saturation of Flashplates: The Flashplates are preincubated for at least 1 hour with 50 μl saturating buffer. Remove 18 μl from the 50 μl and transfer 18 μl of the assay mixture to the Flashplate.
Final concentrations, calculated for 5 μl reaction volume: ALK1 5 ng/well; 1 μM biotinylated α-casein; 0.5 μM ATP; 22 nCi/well [γ-^33P]ATP; 1 mM MnCl2; 1 mM DTT; 50 mM Tris-HCl; pH 8.0; 0.01% NP40; 0.5× Complete EDTA-free; 1% or 5% DMSO.
The data were normalised (enzyme reaction without inhibitor=0% inhibition, enzyme reaction in the presence of 10 mM EDTA=100% inhibition) and IC50 values were calculated by a 4 parameter fit using an in-house software.
`CC(=O)c1cccc(-c2cnn3ccc(NCc4ccncc4)nc23)c1` [Example 216, 1-(3-{5-[(Pyridin-4-ylmethyl)-amino]-pyrazolo[1,5-a]pyrimidin-3-yl}-phenyl)-ethanone]: the IC50 lay in the range of 1 to 10 µM. In the case of `Cc1ccc(Nc2ccn3ncc(-c4cnn(C)c4)c3n2)cc1NS(C)(=O)=O` [Example 210, N-{2-Methyl-5-[3-(1-methyl-1H-pyrazol-4-yl)-pyrazolo[1,5-a]pyrimidin-5-ylamino]-phenyl}-methanesulfonamide], the IC50 is below 1 µM. The result for `COc1cncc(-c2cnn3ccc(Nc4ccccc4)nc23)c1` [Example 251, [3-(5-Methoxy-pyridin-3-yl)-pyrazolo[1,5-a]pyrimidin-5-yl]-phenyl-amine] reads 1 to 10 µM. Turning to `COc1cc(Nc2ccn3ncc(-c4cc(OC)c(OC)c(OC)c4)c3n2)cc(OC)c1OC` [Example 77, (3,4,5-Trimethoxy-phenyl)-[3-(3,4,5-trimethoxy-phenyl)-pyrazolo[1,5-a]pyrimidin-5-yl]-amine], the IC50 is below 1 µM. The result for `COc1cccc(-c2cnn3ccc(Nc4ccccc4)nc23)c1` [Example 241, [3-(3-Methoxy-phenyl)-pyrazolo[1,5-a]pyrimidin-5-yl]-phenyl-amine] reads 1 to 10 µM; that for `Oc1ccc(-c2cnn3ccc(Nc4ccccc4)nc23)cc1` [Example 282, 4-(5-Phenylamino-pyrazolo[1,5-a]pyrimidin-3-yl)-phenol], 1 to 10 µM. The result for `Cn1cc(-c2cnn3ccc(Nc4ccccc4)nc23)cn1` [Example 244, [3-(1-Methyl-1H-pyrazol-4-yl)-pyrazolo[1,5-a]pyrimidin-5-yl]-phenyl-amine] reads below 1 µM; that for `COc1ccc(-c2cnn3ccc(NC4CCC(O)CC4)nc23)cc1OC` (centres unmarked) [Example 69, 4-[3-(3,4-Dimethoxy-phenyl)-pyrazolo[1,5-a]pyrimidin-5-ylamino]-cyclohexanol], below 1 µM. Consider `CC(=O)Nc1cccc(-c2cnn3ccc(Nc4ccc(N5CCOCC5)cc4)nc23)c1` [Example 29, N-{3-[5-(4-Morpholin-4-yl-phenylamino)-pyrazolo[1,5-a]pyrimidin-3-yl]-phenyl}-acetamide], for which the IC50 fell in the range of 1 to 10 µM. With `COc1ccc(Nc2ccn3ncc(-c4ccsc4)c3n2)cn1` [Example 464, (6-Methoxy-pyridin-3-yl)-(3-thiophen-3-yl-pyrazolo[1,5-a]pyrimidin-5-yl)-amine], the IC50 is 1 to 10 µM. The result for `OCCNc1ccn2ncc(-c3ccc(Cl)cc3)c2n1` [Example 121, 2-[3-(4-Chloro-phenyl)-pyrazolo[1,5-a]pyrimidin-5-ylamino]-ethanol] reads 1 to 10 µM; that for `CC(=O)Nc1cccc(-c2cnn3ccc(Nc4ccccc4)nc23)c1` [Example 283, N-[3-(5-Phenylamino-pyrazolo[1,5-a]pyrimidin-3-yl)-phenyl]-acetamide], 1 to 10 µM; that for `Cc1ccc(Nc2ccn3ncc(-c4cccc(NS(C)(=O)=O)c4)c3n2)cc1NS(C)(=O)=O` [Example 209, N-{5-[3-(3-Methanesulfonylamino-phenyl)-pyrazolo[1,5-a]pyrimidin-5-ylamino]-2-methyl-phenyl]-methanesulfonamide], below 1 µM. The result for `COc1cccc(-c2cnn3ccc(Nc4ccc(NS(=O)(=O)c5ccc(C)cc5)cc4)nc23)c1` [Example 200, N-{4-[3-(3-Methoxy-phenyl)-pyrazolo[1,5-a]pyrimidin-5-ylamino]-phenyl}-4-methyl-benzenesulfonamide] reads 1 to 10 µM; that for `COc1cc(-c2cnn3ccc(NC4CCC(O)CC4)nc23)ccc1O` (centres unmarked) [Example 160, 4-[5-(4-Hydroxy-cyclohexylamino)-pyrazolo[1,5-a]pyrimidin-3-yl]-2-methoxy-phenol], 1 to 10 µM. The result for `COc1cc(-c2cnn3ccc(NCCO)nc23)ccc1O` [Example 165, 4-[5-(2-Hydroxy-ethylamino)-pyrazolo[1,5-a]pyrimidin-3-yl]-2-methoxy-phenol] reads below 1 µM; that for `c1cc(N2CCOCC2)ccc1Nc1ccn2ncc(-c3ccc4c(c3)OCO4)c2n1` [Example 472, (3-Benzo[1,3]dioxol-5-yl-pyrazolo[1,5-a]pyrimidin-5-yl)-(4-morpholin-4-yl-phenyl)-amine], 1 to 10 µM; that for `N#Cc1ccc(-c2cnn3ccc(NCCO)nc23)cc1` [Example 119, 4-[5-(2-Hydroxy-ethylamino)-pyrazolo[1,5-a]pyrimidin-3-yl]-benzonitrile], 1 to 10 µM. Take `NC(=O)c1cccc(-c2cnn3ccc(NC4CCC(O)CC4)nc23)c1` (centres unmarked) [Example 220, 3-[5-(4-Hydroxy-cyclohexylamino)-pyrazolo[1,5-a]pyrimidin-3-yl]-benzamide]: the IC50 lay within 1 to 10 µM. The result for `Oc1cccc(-c2cnn3ccc(NCc4cccnc4)nc23)c1` [Example 168, 3-{5-[(Pyridin-3-ylmethyl)-amino]-pyrazolo[1,5-a]pyrimidin-3-yl}-phenol] reads below 1 µM; that for `COc1ccc(-c2cnn3ccc(Nc4cc(OC)c(OC)c(OC)c4)nc23)cc1OC` [Example 462, [3-(3,4-Dimethoxy-phenyl)-pyrazolo[1,5-a]pyrimidin-5-yl]-(3,4,5-trimethoxy-phenyl)-amine], 1 to 10 µM; that for `COc1ccc(-c2cnn3ccc(Nc4ccc(O)cc4)nc23)cn1` [Example 147, 4-[3-(6-Methoxy-pyridin-3-yl)-pyrazolo[1,5-a]pyrimidin-5-ylamino]-phenol], below 1 µM. The result for `Fc1ccc(-c2cnn3ccc(NCc4ccncc4)nc23)cc1` [Example 398, [3-(4-Fluoro-phenyl)-pyrazolo[1,5-a]pyrimidin-5-yl]-pyridin-4-ylmethyl-amine] reads below 1 µM; that for `Oc1ccc(Nc2ccn3ncc(-c4ccsc4)c3n2)cc1` [Example 48, 4-(3-Thiophen-3-yl-pyrazolo[1,5-a]pyrimidin-5-ylamino)-phenol], below 1 µM; that for `CN(C)CCNC(=O)c1cccc(-c2cnn3ccc(Nc4ccc(Oc5ccccc5)cc4)nc23)c1` [Example 329, N-(2-Dimethylamino-ethyl)-3-[5-(4-phenoxy-phenylamino)-pyrazolo[1,5-a]pyrimidin-3-yl]-benzamide], 1 to 10 µM.

Take `OC1CCC(Nc2ccn3ncc(-c4ccc(F)c(Cl)c4)c3n2)CC1` (centres unmarked) [Example 373, 4-[3-(3-Chloro-4-fluoro-phenyl)-pyrazolo[1,5-a]pyrimidin-5-ylamino]-cyclohexanol]: the IC50 lay within 1 to 10 µM. The result for `OCc1cccc(-c2cnn3ccc(Nc4ccccc4)nc23)c1` [Example 272, [3-(5-Phenylamino-pyrazolo[1,5-a]pyrimidin-3-yl)-phenyl]-methanol] reads below 1 µM; that for `NC(=O)c1cccc(-c2cnn3ccc(Nc4ccc(Oc5ccccc5)cc4)nc23)c1` [Example 38, 3-[5-(4-Phenoxy-phenylamino)-pyrazolo[1,5-a]pyrimidin-3-yl]-benzamide], 1 to 10 µM. The result for `COc1ccc(-c2cnn3ccc(NCCO)nc23)cc1OC` [Example 73, 2-[3-(3,4-Dimethoxy-phenyl)-pyrazolo[1,5-a]pyrimidin-5-ylamino]-ethanol] reads below 1 µM.
